Measured values taken from US20260137697A1, “THIAZOLO[5,4-D]PYRIMIDINE COMPOUNDS, COMPOSITIONS COMPRISING THEM AND USES THEREOF” (University de Montreal, priority 2022, published 2026).
Read-outs that look alike come from different tables or passages of the source.

Tests used:
Type in all cases: cell-based, human
[1] = tested on: A375 cells; experiment: Proliferation inhibition, CellTiter-Glo, A375; settings: Table D-1, A375 (BRAF V600E), 3 days, read-out: Prolif. (proliferation EC50)
Experimental: (§1) All cancer cell lines (A375, A101D, A2058, RKO, HT29 SK-MEL 30, IPC298, HepG2, HCT-116, Lovo, SW620, SW480, NCI-H358, NCI-H2122, Calu-6, NCIH2087, NCIH1755, NCIH1666 and Mewo) were obtained from ATCC and cultured in RPM1-1640 medium (Gibco) supplemented with 5% heat inactivated fetal bovine serum (FBS, Wisent) at 37° C. under 5% CO2. Cells were maintained in T175 flasks (Greiner). They were passaged by removing the culture medium, washing once in 10 mL of room temperature Phosphate Buffered Saline (PBS; Wisent) and incubating at 37° C. with 2 mL of 0.05% Trypsin (Thermo-Fisher). Trypsin was then inactivated by adding complete growth medium and the cells were then replated in a T175 culture dish at the appropriate dilution. All cell lines were routinely tested for mycoplasma contamination. Tissue type and mutational status of each cell line can be found in Table B.
(§2) CellTiter-Glo® viability analysis was conducted on cells plated in 100 μL of complete RPMI-1640 growth medium in 96-well flat-bottomed white opaque plates (Greiner or Croning) at a density indicated in Table E (for each CCL, number of cells plated per well of a 96-well plate to perform the CellTiter-Glo® cell viability assay). The cell density in cells/cm^2 would correspond to cell number divided by the area of one well of a 96-well plate (0.32 cm^2). […]
(§3) After 3 days of incubation, the growth media were removed by aspiration and 60 μL of diluted CellTiter-Glo® reagent (10 μL CellTiter-Glo® reagent+50 μL of PBS) was added to each well. […] Luminescence signals were then acquired on a Synergy Neo2 plate reader (Biotek).
(§4) The effect of each compound dilution on the proliferation of cancer cell lines was expressed in % inhibition and calculated as follows. […]
(§5) The ability of each compound to inhibit proliferation was expressed as a EC50 value obtained by plotting the effect values for each data point of a dilution series and fitting the obtained curves using a log(agonist) versus response—variable slope (four parameters) function using GraphPadPrism (V7.0) or Dotmatics Screening Ultra platform.

[2] = tested on: SK-MEL30 cells; experiment: Proliferation inhibition, CellTiter-Glo, SK-MEL30; settings: Table D-1, SK-MEL30 (NRAS-Q61K), 3 days, read-out: Prolif. (proliferation EC50)
Experimental: as §1, §2, §3, §4, §5

[3] = tested on: Lovo cells; experiment: Proliferation inhibition, CellTiter-Glo, Lovo; settings: Table D-2, Lovo (KRAS-G13D), 3 days, read-out: Prolif. (proliferation EC50)
Experimental: as §1, §2, §3, §4, §5

[4] = tested on: SW620 cells; experiment: Proliferation inhibition, CellTiter-Glo, SW620; settings: Table D-2, SW620 (KRAS-G12V), 3 days, read-out: Prolif. (proliferation EC50)
Experimental: as §1, §2, §3, §4, §5

[5] = tested on: NCI-H2122 cells; experiment: Proliferation inhibition, CellTiter-Glo, NCI-H2122; settings: Table D-2, NCI-H2122 (KRAS-G12C), 3 days, read-out: Prolif. (proliferation EC50)
Experimental: as §1, §2, §3, §4, §5

[6] = tested on: NCIH1755 cells; experiment: Proliferation inhibition, CellTiter-Glo, NCIH1755; settings: Table D-2, NCIH1755 (BRAF G469A), 3 days, read-out: Prolif. (proliferation EC50)
Experimental: as §1, §2, §3, §4, §5

Row | EC50 [1] | EC50 [2] | EC50 [3] | EC50 [4] | EC50 [5] | EC50 ([1]; Homo sapiens, A-375, 72 h) | EC50 ([2]; Homo sapiens, SK-MEL-30, 72 h) | EC50 ([3]; Homo sapiens, 72 h) | EC50 ([4]; Homo sapiens, SW-620, 72 h) | EC50 ([5]; Homo sapiens, 72 h) | SMILES | EC50 [6] | EC50 ([6]; Homo sapiens, NCI-H1755, 72 h)
1 | < 0.3 µM | < 0.3 µM | < 0.3 µM | < 0.3 µM | < 0.3 µM |  |  |  |  |  | Cc1c(F)cccc1S(=O)(=O)Nc1ccc(F)c(Nc2ncnc3sc(-n4cc(C(=O)N5C6CCC5CN(C)C6)c5ccccc54)nc23)c1F [Example 44] | < 0.3 µM | 
2 | < 0.3 µM | < 0.3 µM | < 0.3 µM | < 0.3 µM | 0.3 to 3 µM |  |  |  |  |  | N#CC1(c2cccc3c2ncn3-c2nc3c(Nc4c(F)ccc(NS(=O)(=O)c5cccc(Cl)c5Cl)c4F)ncnc3s2)CC1 [Example 122] | < 0.3 µM | 
3 |  |  |  |  |  | < 0.3 µM | < 0.3 µM | < 0.3 µM | 0.3 to 3 µM | 0.3 to 3 µM | Cc1ccc2c(Nc3cccc(Cl)c3F)nccc2c1NC(=O)c1csc2c(N)ncnc12 [Belvarafenib, reference compound] |  | > 3 µM
